{
  "source": "paper PMC11413503",
  "about": "“SCR‐7952, a highly selective MAT2A inhibitor, demonstrates synergistic antitumor activities in combination with the S‐adenosylmethionine‐competitive or the methylthioadenosine‐cooperative protein arginine methyltransferase 5 inhibitors in methylthioadenosine phosphorylase‐deleted tumors” (MedComm, 2024)",
  "key": {"HTR2A": {"target": "HTR2A (Homo sapiens, UniProt P28223)", "experiment": "Mini-profiling panel, GPCR", "format": "cell-based", "protocol": "(§1) Further insight into selectivity was evaluated in a functional panel of 47 representative targets closely related to human life activities, including G protein‐coupled receptors, transporters, ion channels, kinases, nuclear hormone receptor targets, and nonkinase enzymes (Table S3)."}, "CNR1": {"target": "CNR1 (Homo sapiens, UniProt P21554)", "experiment": "Mini-profiling panel, GPCR", "format": "cell-based", "protocol": "as §1"}, "OPRK1": {"target": "OPRK1 (Homo sapiens, UniProt P41145)", "experiment": "Mini-profiling panel, GPCR", "format": "cell-based", "protocol": "as §1"}, "HTR1B": {"target": "HTR1B (Homo sapiens, UniProt P28222)", "sequence (P28222 whole entry, species assumed)": "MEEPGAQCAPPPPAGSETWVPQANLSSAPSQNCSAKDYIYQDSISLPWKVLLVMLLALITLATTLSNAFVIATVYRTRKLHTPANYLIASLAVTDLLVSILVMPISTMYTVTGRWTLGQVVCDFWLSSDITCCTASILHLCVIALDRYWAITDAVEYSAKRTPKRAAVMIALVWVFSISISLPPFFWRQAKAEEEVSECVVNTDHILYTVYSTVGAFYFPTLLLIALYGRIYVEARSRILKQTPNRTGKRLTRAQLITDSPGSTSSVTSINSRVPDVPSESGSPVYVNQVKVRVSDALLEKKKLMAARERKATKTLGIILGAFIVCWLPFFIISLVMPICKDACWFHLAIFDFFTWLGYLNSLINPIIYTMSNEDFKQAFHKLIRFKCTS", "experiment": "Mini-profiling panel, GPCR", "format": "cell-based", "protocol": "as §1"}, "OPRM1": {"target": "OPRM1 (Homo sapiens, UniProt P35372)", "sequence (P35372 whole entry, species assumed)": "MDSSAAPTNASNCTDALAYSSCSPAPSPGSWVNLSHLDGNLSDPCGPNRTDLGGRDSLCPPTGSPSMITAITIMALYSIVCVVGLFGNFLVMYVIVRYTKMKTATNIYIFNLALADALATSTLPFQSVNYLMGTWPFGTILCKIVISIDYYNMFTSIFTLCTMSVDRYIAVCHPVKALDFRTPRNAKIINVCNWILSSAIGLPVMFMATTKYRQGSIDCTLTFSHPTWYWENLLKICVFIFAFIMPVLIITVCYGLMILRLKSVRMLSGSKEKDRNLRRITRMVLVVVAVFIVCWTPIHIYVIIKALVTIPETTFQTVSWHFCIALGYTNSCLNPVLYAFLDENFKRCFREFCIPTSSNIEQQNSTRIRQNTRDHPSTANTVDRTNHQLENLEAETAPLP", "experiment": "Mini-profiling panel, GPCR", "format": "cell-based", "protocol": "as §1"}, "ADRA2A": {"target": "ADRA2A (Homo sapiens, UniProt P08913)", "experiment": "Mini-profiling panel, GPCR", "format": "cell-based", "protocol": "as §1"}, "ADRA1A": {"target": "ADRA1A (Homo sapiens, UniProt P35348)", "sequence (P35348 whole entry)": "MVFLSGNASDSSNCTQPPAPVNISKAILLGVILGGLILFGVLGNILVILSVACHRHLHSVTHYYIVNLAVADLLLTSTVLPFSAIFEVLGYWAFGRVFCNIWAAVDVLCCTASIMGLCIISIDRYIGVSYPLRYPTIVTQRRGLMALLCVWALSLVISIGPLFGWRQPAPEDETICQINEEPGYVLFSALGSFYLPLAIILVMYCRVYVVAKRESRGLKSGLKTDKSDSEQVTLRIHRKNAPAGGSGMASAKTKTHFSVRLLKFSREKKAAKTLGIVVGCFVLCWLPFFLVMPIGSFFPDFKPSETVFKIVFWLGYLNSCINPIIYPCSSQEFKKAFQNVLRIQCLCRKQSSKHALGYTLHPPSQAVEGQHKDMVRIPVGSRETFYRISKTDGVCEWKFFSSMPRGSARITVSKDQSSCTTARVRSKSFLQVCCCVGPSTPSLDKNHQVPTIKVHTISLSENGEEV", "experiment": "Mini-profiling panel, GPCR", "format": "cell-based", "protocol": "as §1"}, "CHRM2": {"target": "CHRM2 (Homo sapiens, UniProt P08172)", "experiment": "Mini-profiling panel, GPCR", "format": "cell-based", "protocol": "as §1"}, "CNR2": {"target": "CNR2 (Homo sapiens, UniProt P34972)", "sequence (P34972 whole entry, species assumed)": "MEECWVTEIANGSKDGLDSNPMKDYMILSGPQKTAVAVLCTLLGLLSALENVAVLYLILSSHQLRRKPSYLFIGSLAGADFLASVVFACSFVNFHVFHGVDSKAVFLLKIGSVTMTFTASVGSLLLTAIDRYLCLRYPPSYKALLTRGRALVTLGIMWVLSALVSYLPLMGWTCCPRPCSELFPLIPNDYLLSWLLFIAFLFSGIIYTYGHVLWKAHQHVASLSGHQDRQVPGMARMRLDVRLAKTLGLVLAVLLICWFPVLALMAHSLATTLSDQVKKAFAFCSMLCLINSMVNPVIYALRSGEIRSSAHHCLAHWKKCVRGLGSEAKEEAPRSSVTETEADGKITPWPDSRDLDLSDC", "experiment": "Mini-profiling panel, GPCR", "format": "cell-based", "protocol": "as §1"}, "CHRM1": {"target": "CHRM1 (Homo sapiens, UniProt P11229)", "sequence (P11229 whole entry, species assumed)": "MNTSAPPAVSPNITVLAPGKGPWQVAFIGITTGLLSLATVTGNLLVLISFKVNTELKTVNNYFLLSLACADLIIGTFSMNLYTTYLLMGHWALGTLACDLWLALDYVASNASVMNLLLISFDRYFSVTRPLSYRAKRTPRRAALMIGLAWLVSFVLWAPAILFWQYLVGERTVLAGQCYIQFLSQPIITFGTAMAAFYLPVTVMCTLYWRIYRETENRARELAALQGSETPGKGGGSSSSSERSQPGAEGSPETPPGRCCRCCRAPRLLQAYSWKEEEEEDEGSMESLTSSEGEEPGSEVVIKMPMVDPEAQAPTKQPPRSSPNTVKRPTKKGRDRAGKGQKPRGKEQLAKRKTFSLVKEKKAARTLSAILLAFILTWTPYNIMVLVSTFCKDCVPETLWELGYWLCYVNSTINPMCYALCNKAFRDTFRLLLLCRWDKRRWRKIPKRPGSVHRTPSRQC", "experiment": "Mini-profiling panel, GPCR", "format": "cell-based", "protocol": "as §1"}, "DRD2S": {"target": "DRD2S (Homo sapiens, UniProt P14416)", "experiment": "Mini-profiling panel, GPCR", "format": "cell-based", "protocol": "as §1"}, "HTR1A": {"target": "HTR1A (Homo sapiens, UniProt P08908)", "sequence (P08908 whole entry, species assumed)": "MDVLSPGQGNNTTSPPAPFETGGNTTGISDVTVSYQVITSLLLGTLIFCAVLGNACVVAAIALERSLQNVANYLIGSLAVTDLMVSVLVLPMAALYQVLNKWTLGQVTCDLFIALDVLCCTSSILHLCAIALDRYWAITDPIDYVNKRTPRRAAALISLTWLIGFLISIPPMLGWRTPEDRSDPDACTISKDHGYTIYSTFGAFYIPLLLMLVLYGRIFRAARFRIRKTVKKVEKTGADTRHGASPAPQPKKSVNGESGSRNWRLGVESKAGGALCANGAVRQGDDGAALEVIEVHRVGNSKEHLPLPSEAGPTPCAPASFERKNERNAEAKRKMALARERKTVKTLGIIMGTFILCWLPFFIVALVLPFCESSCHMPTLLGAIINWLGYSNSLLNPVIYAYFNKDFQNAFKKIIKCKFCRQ", "experiment": "Mini-profiling panel, GPCR", "format": "cell-based", "protocol": "as §1"}, "OPRD1": {"target": "OPRD1 (Homo sapiens, UniProt P41143)", "sequence (P41143 whole entry, species assumed)": "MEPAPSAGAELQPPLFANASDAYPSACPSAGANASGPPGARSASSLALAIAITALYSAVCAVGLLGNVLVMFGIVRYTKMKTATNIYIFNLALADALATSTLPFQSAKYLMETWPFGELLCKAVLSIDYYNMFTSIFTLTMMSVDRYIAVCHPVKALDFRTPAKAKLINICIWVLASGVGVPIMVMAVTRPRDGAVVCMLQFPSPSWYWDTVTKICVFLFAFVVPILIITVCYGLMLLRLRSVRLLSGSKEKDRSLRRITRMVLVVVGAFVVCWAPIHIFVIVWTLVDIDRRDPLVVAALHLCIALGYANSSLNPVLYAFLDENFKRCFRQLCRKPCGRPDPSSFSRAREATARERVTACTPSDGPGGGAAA", "experiment": "Mini-profiling panel, GPCR", "format": "cell-based", "protocol": "as §1"}, "DRD1": {"target": "DRD1 (Homo sapiens, UniProt P21728)", "sequence (P21728 whole entry, species assumed)": "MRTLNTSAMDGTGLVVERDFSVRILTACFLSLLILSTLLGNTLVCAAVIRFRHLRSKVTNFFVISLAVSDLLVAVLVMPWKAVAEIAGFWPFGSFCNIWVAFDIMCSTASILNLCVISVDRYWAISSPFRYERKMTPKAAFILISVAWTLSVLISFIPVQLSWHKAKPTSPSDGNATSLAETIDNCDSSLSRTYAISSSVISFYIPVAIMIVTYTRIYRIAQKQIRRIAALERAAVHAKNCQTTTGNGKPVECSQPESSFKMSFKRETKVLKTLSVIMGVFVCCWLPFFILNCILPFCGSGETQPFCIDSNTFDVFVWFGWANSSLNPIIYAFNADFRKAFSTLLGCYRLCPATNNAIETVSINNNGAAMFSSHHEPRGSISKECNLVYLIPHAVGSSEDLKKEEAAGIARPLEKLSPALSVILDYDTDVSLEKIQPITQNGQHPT", "experiment": "Mini-profiling panel, GPCR", "format": "cell-based", "protocol": "as §1"}, "HTR2B": {"target": "HTR2B (Homo sapiens, UniProt P41595)", "experiment": "Mini-profiling panel, GPCR", "format": "cell-based", "protocol": "as §1"}, "CHRM3": {"target": "CHRM3 (Homo sapiens, UniProt P20309)", "experiment": "Mini-profiling panel, GPCR", "format": "cell-based", "protocol": "as §1"}, "ADORA2A": {"target": "ADORA2A (Homo sapiens, UniProt P29274)", "sequence (P29274 whole entry, species assumed)": "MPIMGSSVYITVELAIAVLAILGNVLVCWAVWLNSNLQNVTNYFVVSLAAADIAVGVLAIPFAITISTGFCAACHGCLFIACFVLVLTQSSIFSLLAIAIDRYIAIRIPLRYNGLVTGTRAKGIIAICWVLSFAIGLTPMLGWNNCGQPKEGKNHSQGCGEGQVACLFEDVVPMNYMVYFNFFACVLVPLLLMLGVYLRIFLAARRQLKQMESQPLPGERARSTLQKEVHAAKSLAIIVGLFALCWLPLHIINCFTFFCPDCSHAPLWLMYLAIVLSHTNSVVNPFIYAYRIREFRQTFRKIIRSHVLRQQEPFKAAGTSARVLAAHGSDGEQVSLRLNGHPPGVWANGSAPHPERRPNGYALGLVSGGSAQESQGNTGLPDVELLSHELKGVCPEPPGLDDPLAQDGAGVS", "experiment": "Mini-profiling panel, GPCR", "format": "cell-based", "conditions": "GPCR Targets"}, "ADRB2": {"target": "ADRB2 (Homo sapiens, UniProt P07550)", "sequence (P07550 whole entry, species assumed)": "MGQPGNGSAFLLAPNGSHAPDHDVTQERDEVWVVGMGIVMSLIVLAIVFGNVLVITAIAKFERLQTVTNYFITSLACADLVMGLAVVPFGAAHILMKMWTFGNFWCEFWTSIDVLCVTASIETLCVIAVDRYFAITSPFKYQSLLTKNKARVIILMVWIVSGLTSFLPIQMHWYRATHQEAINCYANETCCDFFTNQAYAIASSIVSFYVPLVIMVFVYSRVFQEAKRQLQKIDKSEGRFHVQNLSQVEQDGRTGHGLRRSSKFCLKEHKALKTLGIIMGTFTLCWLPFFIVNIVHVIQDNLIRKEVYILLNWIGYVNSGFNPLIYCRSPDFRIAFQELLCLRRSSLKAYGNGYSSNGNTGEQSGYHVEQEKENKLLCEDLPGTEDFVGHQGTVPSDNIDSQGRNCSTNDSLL", "experiment": "Mini-profiling panel, GPCR", "format": "cell-based", "conditions": "GPCR Targets"}, "ROCK1": {"target": "ROCK1 (Homo sapiens, UniProt Q13464)", "experiment": "Mini-profiling panel, kinase", "format": "biochemical", "conditions": "Kinases; read-out: ROCK1 Inhibitor IC50"}, "MAT2A": {"target": "T1, MAT2A (Homo sapiens, UniProt P31153)", "T1 construct": "purchased Pharmaron 210405‐HWR‐20210429", "T1 sequence (P31153 whole entry)": "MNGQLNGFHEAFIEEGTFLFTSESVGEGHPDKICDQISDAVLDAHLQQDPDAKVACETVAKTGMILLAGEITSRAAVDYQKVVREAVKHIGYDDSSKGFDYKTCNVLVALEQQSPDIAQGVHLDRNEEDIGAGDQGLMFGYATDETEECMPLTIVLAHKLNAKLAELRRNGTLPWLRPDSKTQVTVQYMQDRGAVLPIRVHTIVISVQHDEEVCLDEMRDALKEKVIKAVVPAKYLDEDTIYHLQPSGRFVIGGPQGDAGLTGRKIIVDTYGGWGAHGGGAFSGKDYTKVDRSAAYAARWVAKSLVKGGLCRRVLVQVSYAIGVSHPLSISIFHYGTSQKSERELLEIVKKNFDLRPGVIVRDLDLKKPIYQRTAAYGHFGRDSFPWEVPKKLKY", "experiment": "SPR binding, single-cycle kinetics", "protocol": "SPR experiments were performed using a BIAcore 8K instrument (Cytiva) at 25°C. A series S sensor chip SA (Cytiva) was docked into the system in 20 mM Bicine‐Na, pH 7.5, 100 mM KCl, 5 mM MgCl2, 0.1 mM TCEP, 0.05% (w/w) Tween‐20, and 2% (v/v) DMSO. The MAT2A protein was captured by Penta‐anti‐His antibody, and the affinity of SCR‐7952 was tested over a suitable dose–response range (12.5–200 nM) by single‐cycle kinetics. The kinetic parameters of SCR‐7952 on MAT2A were fitted via a 1:1 binding model."}, "[1]": {"tested_on": "KP4 (MTAP-deleted pancreatic cancer cell line)", "experiment": "Combination proliferation assay", "format": "cell-based", "conditions": "KP4 cells, 8 days", "protocol": "(§2) Cells were plated in 96‐well cell culture plates and allowed to attach overnight at 37°C in 5% CO2. […] The final concentration of DMSO was 0.1% in media. Cell proliferation was measured using CellTiter‐Glo Cell Viability Assay (Promega). The IC50 values were calculated using the GraphPad Prism 9. Drug combination effects were analyzed using Combenefit software.[45]"}, "MAOA": {"target": "MAOA (Homo sapiens, UniProt P21397)", "experiment": "Mini-profiling panel, non-kinase enzyme", "format": "biochemical", "conditions": "Non-Kinase Enzymes; read-out: MAOA Inhibitor IC50"}, "HCT116 MTAP−/− cells": {"tested_on": "HCT116 MTAP−/− cells", "experiment": "Combination proliferation assay with PRMT5 inhibitors (Bliss model)", "format": "cell-based", "conditions": "8 days", "protocol": "as §2"}, "EDNRA": {"target": "EDNRA (Homo sapiens, UniProt P25101)", "sequence (P25101 21-427, species assumed)": "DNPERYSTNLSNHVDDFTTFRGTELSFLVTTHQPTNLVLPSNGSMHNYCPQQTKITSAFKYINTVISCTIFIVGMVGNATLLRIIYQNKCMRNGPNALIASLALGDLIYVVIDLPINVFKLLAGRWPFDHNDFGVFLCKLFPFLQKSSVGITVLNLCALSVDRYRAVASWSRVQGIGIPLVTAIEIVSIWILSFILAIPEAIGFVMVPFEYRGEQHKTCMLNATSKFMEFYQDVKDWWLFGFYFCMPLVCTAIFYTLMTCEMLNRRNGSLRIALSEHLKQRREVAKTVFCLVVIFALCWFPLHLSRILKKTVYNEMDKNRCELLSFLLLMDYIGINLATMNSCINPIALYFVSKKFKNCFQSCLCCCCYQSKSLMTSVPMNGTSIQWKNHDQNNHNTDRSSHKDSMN", "experiment": "Mini-profiling panel, GPCR", "format": "cell-based", "conditions": "GPCR Targets"}, "hERG": {"target": "hERG (Homo sapiens, UniProt Q12809)", "experiment": "Mini-profiling panel, ion channel", "format": "cell-based", "conditions": "Ion Channels; read-out: hERG Blocker IC50"}, "GR": {"target": "GR (Homo sapiens, UniProt P04150)", "experiment": "Mini-profiling panel, nuclear hormone receptor", "format": "cell-based", "conditions": "NHR Targets"}, "FANCA": {"tested_on": "FANCA", "experiment": "RT-PCR of FANCA and DI-containing transcripts", "format": "cell-based", "conditions": "72 h"}, "CAV1.2": {"target": "CAV1.2 (Homo sapiens, UniProt Q13936)", "experiment": "cell-based"}},
  "data": [
    {"smiles": "Cn1cnc2c(=O)n(-c3cccnc3C3CC3)c3cc(Cl)ccc3c21", "note": "[SCR‐7952, 7‐chloro‐5‐(2‐cyclopropylpyridin‐3‐yl)‐1‐methyl‐1,5‐dihydro‐4H‐imidazo[4,5‐c]quinolin‐4‐one]", "values": [
      {"measurement": "EC50", "setting": "HTR2A", "result": "> 10", "unit": "µM"},
      {"measurement": "IC50", "setting": "HTR2A", "result": "> 10", "unit": "µM"},
      {"measurement": "EC50", "setting": "CNR1", "result": "> 10", "unit": "µM"},
      {"measurement": "IC50", "setting": "CNR1", "result": "> 10", "unit": "µM"},
      {"measurement": "EC50", "setting": "OPRK1", "result": "> 10", "unit": "µM"},
      {"measurement": "IC50", "setting": "OPRK1", "result": "> 10", "unit": "µM"},
      {"measurement": "EC50", "setting": "HTR1B", "result": "> 10", "unit": "µM"},
      {"measurement": "IC50", "setting": "HTR1B", "result": "> 10", "unit": "µM"},
      {"measurement": "EC50", "setting": "OPRM1", "result": "> 10", "unit": "µM"},
      {"measurement": "IC50", "setting": "OPRM1", "result": "> 10", "unit": "µM"},
      {"measurement": "EC50", "setting": "ADRA2A", "result": "> 10", "unit": "µM"},
      {"measurement": "IC50", "setting": "ADRA2A", "result": "> 10", "unit": "µM"},
      {"measurement": "EC50", "setting": "ADRA1A", "result": "> 10", "unit": "µM"},
      {"measurement": "IC50", "setting": "ADRA1A", "result": "> 10", "unit": "µM"},
      {"measurement": "EC50", "setting": "CHRM2", "result": "> 10", "unit": "µM"},
      {"measurement": "IC50", "setting": "CHRM2", "result": "> 10", "unit": "µM"},
      {"measurement": "EC50", "setting": "CNR2", "result": "> 10", "unit": "µM"},
      {"measurement": "IC50", "setting": "CNR2", "result": "> 10", "unit": "µM"},
      {"measurement": "EC50", "setting": "CHRM1", "result": "> 10", "unit": "µM"},
      {"measurement": "IC50", "setting": "CHRM1", "result": "> 10", "unit": "µM"},
      {"measurement": "EC50", "setting": "DRD2S", "result": "> 10", "unit": "µM"},
      {"measurement": "IC50", "setting": "DRD2S", "result": "> 10", "unit": "µM"},
      {"measurement": "EC50", "setting": "HTR1A", "result": "> 10", "unit": "µM"},
      {"measurement": "IC50", "setting": "HTR1A", "result": "> 10", "unit": "µM"},
      {"measurement": "EC50", "setting": "OPRD1", "result": "> 10", "unit": "µM"},
      {"measurement": "IC50", "setting": "OPRD1", "result": "> 10", "unit": "µM"},
      {"measurement": "EC50", "setting": "DRD1", "result": "> 10", "unit": "µM"},
      {"measurement": "IC50", "setting": "DRD1", "result": "> 10", "unit": "µM"},
      {"measurement": "EC50", "setting": "HTR2B", "result": "> 10", "unit": "µM"},
      {"measurement": "IC50", "setting": "HTR2B", "result": "> 10", "unit": "µM"},
      {"measurement": "EC50", "setting": "CHRM3", "result": "> 10", "unit": "µM"},
      {"measurement": "IC50", "setting": "CHRM3", "result": "> 10", "unit": "µM"},
      {"measurement": "EC50", "setting": "ADORA2A; read-out: ADORA2A Agonism EC50", "result": "> 10", "unit": "µM"},
      {"measurement": "IC50", "setting": "ADORA2A; read-out: ADORA2A Antagonism IC50", "result": "> 10", "unit": "µM"},
      {"measurement": "EC50", "setting": "ADRB2; read-out: ADRB2 Agonism EC50", "result": "> 10", "unit": "µM"},
      {"measurement": "IC50", "setting": "ADRB2; read-out: ADRB2 Antagonism IC50", "result": "> 10", "unit": "µM"},
      {"measurement": "IC50", "setting": "ROCK1", "result": "> 10", "unit": "µM"},
      {"measurement": "Kd", "setting": "MAT2A; read-out: dissociation equilibrium constant KD", "result": 0.56, "unit": "nM"},
      {"measurement": "kon", "setting": "MAT2A; single-cycle kinetic model, read-out: association rate constant ka", "result": 86700, "unit": "M⁻¹ s⁻¹"},
      {"measurement": "koff", "setting": "MAT2A; single-cycle kinetic model, read-out: dissociation rate constant kd", "result": "4.83e-05", "unit": "s⁻¹"},
      {"measurement": "interaction in combination with JNJ-64619178 on KP4", "setting": "[1]", "result": "synergistic effect was also observed"},
      {"measurement": "IC50", "setting": "MAOA", "result": "> 10", "unit": "µM"},
      {"measurement": "interaction on cell growth in combination with JNJ-64619178", "setting": "HCT116 MTAP−/− cells", "result": "synergistic interactions"},
      {"measurement": "interaction on cell growth in combination with MRTX-1719", "setting": "HCT116 MTAP−/− cells", "result": "synergistic interactions"},
      {"measurement": "synergistic effect in combination with GSK3326595", "setting": "HCT116 MTAP−/− cells", "result": "much weaker"},
      {"measurement": "EC50", "setting": "EDNRA; read-out: EDNRA Agonism EC50", "result": "> 10", "unit": "µM"},
      {"measurement": "IC50", "setting": "EDNRA; read-out: EDNRA Antagonism IC50", "result": "> 10", "unit": "µM"},
      {"measurement": "IC50", "setting": "hERG", "result": "> 10", "unit": "µM"},
      {"measurement": "EC50", "setting": "GR; read-out: GR Agonism EC50", "result": "> 10", "unit": "µM"},
      {"measurement": "IC50", "setting": "GR; read-out: GR Antagonism IC50", "result": "> 10", "unit": "µM"},
      {"measurement": "expression of FANCA DI-containing transcripts", "setting": "FANCA", "result": "significantly upregulated"},
      {"measurement": "total levels of FANCA mRNA", "setting": "FANCA", "result": "reduced"},
      {"measurement": "IC50", "setting": "CAV1.2", "result": "> 10", "unit": "µM"}
    ]}
  ]
}
